Assay results published in US20090018163A1, “Substituted Heterocyclic Ethers and Their Use in CNS Disorders” (Bristol-Myers Squibb Company, priority 2007, published 2009).
Where two headings read alike, the source gives them in different places.

Assays:
NK-1 = target: T1, NK-1 (Homo sapiens, UniProt P25103); assay: NK1 radioligand binding assay; conditions: U373 membrane preparation, [125I]Substance P
T1 construct: 30 ul/well of a 2×U373 membrane preparation; endogenous in cells; host or cells: U373 cells (crude membrane preparation)
T1 sequence (P25103 whole entry): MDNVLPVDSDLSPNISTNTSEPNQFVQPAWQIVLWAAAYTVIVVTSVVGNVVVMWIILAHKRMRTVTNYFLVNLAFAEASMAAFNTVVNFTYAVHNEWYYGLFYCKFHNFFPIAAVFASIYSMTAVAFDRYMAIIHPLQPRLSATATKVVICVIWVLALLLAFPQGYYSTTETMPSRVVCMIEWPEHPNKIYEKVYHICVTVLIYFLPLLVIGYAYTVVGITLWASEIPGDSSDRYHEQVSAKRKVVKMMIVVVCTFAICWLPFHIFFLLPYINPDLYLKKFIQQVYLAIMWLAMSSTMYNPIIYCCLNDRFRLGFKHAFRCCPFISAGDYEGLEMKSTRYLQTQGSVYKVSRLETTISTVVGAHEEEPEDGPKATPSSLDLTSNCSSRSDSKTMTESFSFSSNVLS
Procedure: (§1) NK-1 Binding assay. Crude membrane suspensions were prepared for the NK1 and SERT radioligand binding assays from U373 cells or recombinant HEK-293 cells expressing hSERT, respectively. Cells were harvested from T-175 flasks as follows. The medium is removed from the flasks and the cells rinsed with HBSS without Ca and without Mg. The cells are then incubated for 5-10 minutes in 10 mM Tris-Cl, pH 7.5, 5 mM EDTA before the cells are lifted with a combination of pipetting and scraping, as needed. To prepare membranes, the cell suspension is collected into centrifuge bottles and homogenized for 30 seconds with a Polytron homogenizer. The suspension is centrifuged for 30 min @ 32,000×g, 4° C., then the supernatant is decanted and the pellet resuspended and homogenized in 50 mM Tris-Cl, pH 7.5, 1 mM EDTA for 10 seconds. The suspension is then centrifuged again for 30 min @ 32,000×g, 4° C. The supernatant is decanted and the pellet resuspended in 50 mM Tris-Cl, pH 7.5, 1 mM EDTA and briefly homogenized. A Bradford assay (Bio-rad) is performed and the membrane preparation diluted to 2 mg/ml with 50 mM Tris-Cl, pH 7.5, 1 mM EDTA. Aliquots are prepared, and then frozen and stored at −80° C.
NK1 radioligand binding assay. Compounds are dissolved in 100% DMSO at a concentration 100× the desired highest assay concentration, serially diluted 1:3 in 100% DMSO, and 0.6 ul/well of each solution is dispensed to a Nunc polypropylene, round bottom, 384 well plate. 100% inhibition is defined with 0.6 ul/well of 1 mM L-733,060 (Sigma L-137) dissolved in DMSO. 30 ul/well of a 2×U373 membrane preparation (267 ug/ml in 100 mM Tris-Cl, pH 7.5, 6 mM MgCl2, 0.2% (v/v) Sigma mammalian protease inhibitor cocktail (Sigma P-8340), and 4 ug/ml chymostatin, Sigma C-7268) and 30 ul/well of a 2× radioligand solution (400 pM [^125I]Substance P (Perkin Elmer NEX-190) in 1% (w/v) BSA (Sigma A-2153), 0.1 mg/ml bacitracin, Sigma B-0125) are added to the well and the reaction incubated for 1 hour at room temperature. The contents of the assay plate are then transferred to a Millipore MultiscreenHTS GF/B filter plate which has been pretreated with 0.5% PEI for at least one hour. The plate is vacuum filtered and washed with 7 washes of 100 ul/well of 20 mM Tris-Cl, pH 7.5, 0.5% (w/v) BSA chilled to 4° C. The filtration and washing is completed in less than 90 s. The plates are air-dried overnight, 12 ul/well of MicroScint scintillation fluid added, and the plates counted in a Trilux.
(§2) Data analysis. The raw data are normalized to percent inhibition using control wells defining 0% (DMSO only) and 100% (selective inhibitor) inhibition which are run on each plate. Each plate is run in triplicate, and the concentration response curve thus generated is fit using the four-parameter dose response equation, Y=Bottom+(Top-Bottom)/(1+10̂((LogIC50−X)*HillSlope)) in order to determine the IC50 value for each compound. The radioligand concentration chosen for each assay corresponds to the Kd concentration determined through saturation binding analysis for each assay.

hSERT = target: T2, hSERT (Homo sapiens, UniProt P31645); assay: SERT radioligand binding assay
T2 construct: expressed in transfected cells; host or cells: HEK-293 cells (crude membrane preparation)
T2 sequence (P31645 whole entry): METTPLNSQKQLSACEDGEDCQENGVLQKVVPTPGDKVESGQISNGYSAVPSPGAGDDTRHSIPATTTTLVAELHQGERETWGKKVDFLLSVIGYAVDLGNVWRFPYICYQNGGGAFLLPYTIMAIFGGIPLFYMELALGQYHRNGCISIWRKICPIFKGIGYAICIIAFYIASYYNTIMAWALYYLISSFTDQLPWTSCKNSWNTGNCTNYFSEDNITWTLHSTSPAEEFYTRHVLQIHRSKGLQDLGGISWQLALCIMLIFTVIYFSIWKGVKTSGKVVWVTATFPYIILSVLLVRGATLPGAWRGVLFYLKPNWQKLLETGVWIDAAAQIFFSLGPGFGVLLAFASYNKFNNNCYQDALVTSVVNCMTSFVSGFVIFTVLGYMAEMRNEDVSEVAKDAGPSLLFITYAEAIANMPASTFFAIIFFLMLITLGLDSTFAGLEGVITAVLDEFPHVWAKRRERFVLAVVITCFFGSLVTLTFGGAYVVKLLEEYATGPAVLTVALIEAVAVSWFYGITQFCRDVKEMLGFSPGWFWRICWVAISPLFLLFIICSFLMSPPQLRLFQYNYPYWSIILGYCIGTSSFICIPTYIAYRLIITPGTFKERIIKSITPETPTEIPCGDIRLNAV
Procedure: as §1
SERT radioligand binding assay. Compounds are dissolved in 100% DMSO at a concentration 100× the desired highest assay concentration, serially diluted 1:3 in 100% DMSO, and 0.4 ul/well of each solution is dispensed to a Nunc polypropylene, round bottom, 384 well plate. 100% inhibition is defined with 0.4 ul/well of 1 mM fluoxetine (Sigma F-132) dissolved in DMSO. 20 ul/well of a 2×HEK-hSERT membrane preparation (15 ug/ml in 50 mM Tris-Cl, pH 7.5, 120 mM NaCl, 5 mM KCl) and 20 ul/well of a 2× radioligand solution (520 pM [^125I]RTI-55 (Perkin-Elmer NEX-272) in 50 mM Tris-Cl, pH 7.5, 120 mM NaCl, 5 mM KCl) are added to each well and the reaction incubated for 1 hour at room temperature. The contents of the assay plate are then transferred to a Millipore MultiscreenHTS GF/B filter plate which has been pretreated with 0.5% PEI for at least one hour. The plate is vacuum filtered and washed with 7 washes of 100 ul/well of 50 mM Tris-Cl, pH 7.5, 120 mM NaCl, 5 mM KCl chilled to 4° C. The filtration and washing is completed in less than 90 s. The plates are air-dried overnight, 12 ul/well of MicroScint scintillation fluid added, and the plates counted in a Trilux.
as §2

[1] = HEK-hSERT membrane preparation, [125I]RTI-55, Table 1a, single enantiomers, read-out: SERT IC50
[2] = HEK-hSERT membrane preparation, [125I]RTI-55, Table 1, read-out: SERT IC50

SMILES | IC50 (NK-1; Table 1a, single enantiomers) [nM] | IC50 (hSERT; [1]) [nM] | IC50 (NK-1; Table 1) [nM] | IC50 (hSERT; [2]) [nM] | IC50 (hSERT) [nM]
CC(OCC1(c2ccccc2)CCN(C)CC1)c1cc(C(F)(F)F)cc2cccnc12 (single isomer, unassigned) [Example 74] | 0.01 to 100 | 0.01 to 100 | – | – | –
Brc1cc(COCC2(c3ccccc3)CCNCC2)nc2ccccc12 [Example 13, 4-bromo-2-(((4-phenylpiperidin-4-yl)methoxy)methyl)quinoline] | – | – | 100 to 300 | 0.01 to 100 | –
Cc1cc(C(C)OCC2(c3ccc(F)cc3)CCN(C)CC2)c2ncccc2c1 (centres unmarked) [Example 40] | – | – | 0.01 to 100 | 0.01 to 100 | –
Cc1cc(C(C)OCC2(c3ccccc3)CCN(C)CC2)c2ncccc2c1 (centres unmarked) [Example 42] | – | – | 0.01 to 100 | 0.01 to 100 | –
CC(OCC1(c2ccccc2)CCNCC1)c1cc(C(F)(F)F)cc2cccnc12 (single isomer, unassigned) [Example 71] | 0.01 to 100 | 0.01 to 100 | – | – | –
Cc1cc(C(C)OCC2(c3ccccc3)CCNCC2)c2ncccc2c1 (centres unmarked) [Example 41] | – | – | 0.01 to 100 | 0.01 to 100 | –
CC(OCC1(c2ccc(F)cc2)CCNCC1)c1cc(C(F)(F)F)cc2cccnc12 (single isomer, unassigned) [Example 68] | 0.01 to 100 | 0.01 to 100 | – | – | –
c1ccc(C2(COCc3cccc4cccnc34)CCNCC2)cc1 [Example 31, 8-(((4-phenylpiperidin-4-yl)methoxy)methyl)quinoline] | – | – | > 300 | 0.01 to 100 | –
Cc1cccc2nc(COCC3(c4ccccc4)CCNCC3)cc(C)c12 [Example 21] | – | – | > 300 | 0.01 to 100 | –
N#Cc1ccc(-c2cc(COCC3(c4ccccc4)CCNCC3)nc3ccccc23)cc1 [Example 15, 4-(2-(((4-phenylpiperidin-4-yl)methoxy)methyl)quinolin-4-yl)benzonitrile] | – | – | > 300 | 0.01 to 100 | –
CC(OCC1(c2ccccc2)CCN(C)CC1)c1cc(C(F)(F)F)cc2cccnc12 (single isomer, unassigned) [Example 72] | > 300 | – | – | – | 0.01 to 100
FC(F)(F)c1ccnc2ccc(COCC3(c4ccccc4)CCNCC3)cc12 [Example 47, 6-(((4-phenylpiperidin-4-yl)methoxy)methyl)-4-(trifluoromethyl)quinoline] | – | – | > 300 | 0.01 to 100 | –
CC(OCC1(c2ccc(F)cc2)CCNCC1)c1cc(C(F)(F)F)cc2cccnc12 (single isomer, unassigned) [Example 67] | > 300 | 0.01 to 100 | – | – | –
Cc1cc(COCC2(c3ccc(F)cc3F)CCN(C)CC2)c2ncccc2c1 [Example 28] | – | – | 100 to 300 | – | 0.01 to 100
CN1CCC(COCc2cc(C#N)cc3cccnc23)(c2ccc(F)cc2)CC1 [Example 44, 8-(((4-(4-fluorophenyl)-1-methylpiperidin-4-yl)methoxy)methyl)quinoline-6-carbonitrile] | – | – | > 300 | – | 0.01 to 100
Cc1cc(COCC2(c3ccccc3)CCN(C)CC2)nc2ccccc12 [Example 4] | – | – | 100 to 300 | – | 0.01 to 100
Cc1cc(C(C)OCC2(c3ccc(F)cc3)CCNCC2)c2ncccc2c1 (centres unmarked) [Example 39] | – | – | 0.01 to 100 | 0.01 to 100 | –
CC(OCC1(c2ccc(F)cc2)CCNCC1)c1cc(Br)cc2cccnc12 (single isomer, unassigned) [Example 77] | 0.01 to 100 | 0.01 to 100 | – | – | –
N#Cc1ccc(-c2cc(COCC3(c4ccccc4)CCNCC3)c3ncccc3c2)cc1 [Example 24] | – | – | > 300 | 0.01 to 100 | –
